From patent US9795140B2, “Molecules having pesticidal utility, and intermediates, compositions, and processes, related thereto” (priority 2015, dated 2017)

What was measured:
Type in all cases: in vivo
[1] = test system: Beet Armyworm (Spodoptera exigua, LAPHEG); assay: Bioassay on Beet Armyworm (BAW), 128-well diet tray assay; conditions: 168 h, 50 μg/cm^2 on artificial diet, second instar larvae, 25° C., five to seven days, average of eight wells, read-out: BAW % Control (or Mortality) rating
Summary of the method: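 Test molecule dissolved in acetone-water 90:10 is applied at 50 μg/cm^2 onto artificial diet and allowed to dry. Second instar larvae, one to five per well, are then added, and trays are vented and kept at 25° C. for five to seven days before mortality is scored.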

[2] = test system: Cabbage Looper (Trichoplusia ni, TRIPNI); assay: Bioassay on Cabbage Looper (CL), 128-well diet tray assay; conditions: 168 h, 50 μg/cm^2 on artificial diet, second instar larvae, 25° C., five to seven days, average of eight wells, read-out: CL % Control (or Mortality) rating
Summary of the method: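 Percent larval mortality, averaged across eight replicate wells, was scored after 5–7 days at 25 °C with a 14:10 photoperiod. Each well held 1 mL diet surface-treated at 50 μg/cm^2 with test molecule from a 90:10 acetone-water solution, then dried. Wells were infested with one to five second-instar cabbage loopers.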

[3] = test system: Green Peach Aphid (Myzus persicae, MYZUPE); assay: Bioassay on Green Peach Aphid (GPA), foliar spray on cabbage seedlings; conditions: 72 h, 200 ppm spray on infested cabbage seedlings, three days, Abbott corrected % control, read-out: GPA % Control (or Mortality) rating
Experimental: Certain molecules disclosed in this document were tested against GPA using procedures described in the following example. In the reporting of the results, the “GPA & YFM Rating Table” was used (See Table Section).
Cabbage seedlings grown in 3-inch pots, with 2-3 small (3-5 cm) true leaves, were used as test substrate. The seedlings were infested with 20-50 GPA (wingless adult and nymph stages) one day prior to chemical application. Four pots with individual seedlings were used for each treatment. Test molecules (2 mg) were dissolved in 2 mL of acetone/methanol (1:1) solvent, forming stock solutions of 1000 ppm test molecule. The stock solutions were diluted 5× with 0.025% Tween 20 in water to obtain the solution at 200 ppm test molecule. A hand-held aspirator-type sprayer was used for spraying a solution to both sides of […] leaves until runoff. Reference plants (solvent check) were sprayed with the diluent only containing 20% by volume of acetone/methanol (1:1) solvent. Treated plants were held in a holding room for three days at approximately 25° C. and ambient relative humidity (RH) prior to grading. Evaluation was conducted by counting the number of live aphids per plant under a microscope. Percent control was measured using Abbott's correction formula (W. S. Abbott, “A Method of Computing the Effectiveness of an Insecticide” J. Econ. Entomol. 18 (1925), pp. 265-267) as follows. Corrected % Control=100*(X−Y)/X where X=No. of live aphids on solvent check plants and Y=No. of live aphids on treated plants. The results are indicated in the table entitled “Table ABC: Biological Results” (See Table Section).

[4] = test system: Yellow Fever Mosquito (Aedes aegypti, AEDSAE); assay: Bioassay on Yellow Fever Mosquito (YFM) larvae, 96-well plate; conditions: about 1 day-old larvae, room temperature, 3 days, scored on mortality
Summary of the method: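 Compound stocks at 4000 ppm in DMSO were diluted with 90:10 water/acetone, and 15 μL aliquots were dispensed into six replicate plates. About 1-day-old larvae in liver-powder water were added per well. Plates were covered and held at room temperature for 3 days before each well was scored for mortality.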

| Compound | mortality at 50 µg/cm2 [1] [%] | mortality at 50 µg/cm2 [2] [%] | mortality at 200 ppm [3] [%] | YFM % Control (or Mortality) rating [4] |
| --- | --- | --- | --- | --- |
| CCCCCNC(=O)c1cc(NC(=O)[C@H]2[C@H](c3cc(Cl)cc(Cl)c3)C2(Cl)Cl)ccc1Cl (relative stereo) [F33, trans-2-Chloro-5-(2,2-dichloro-3-(3,5-dichlorophenyl)cyclopropane-1-carboxamido)-N-pentylbenzamide] | 50 to 100 | 50 to 100 | 0 to 80 | A (80-100) |
| COc1ccc(CNC(=O)c2cc(NC(=O)[C@H]3[C@H](c4cc(Cl)cc(Cl)c4)C3(Cl)Cl)ccc2Cl)c(OC)c1 (relative stereo) [F34, trans-2-Chloro-5-(2,2-dichloro-3-(3,5-dichlorophenyl)cyclopropane-1-carboxamido)-N-(2,4-dimethoxybenzyl)benzamide] | 50 to 100 | 50 to 100 | 0 | A (80-100) |
| O=C(NCC1CC1)c1cc(NC(=O)[C@H]2[C@H](c3cc(Cl)cc(Cl)c3)C2(Cl)Cl)ccc1Cl (relative stereo) [F35, trans-2-Chloro-N-(cyclopropylmethyl)-5-(2,2-dichloro-3-(3,5-dichlorophenyl)cyclopropane-1-carboxamido)benzamide] | 50 to 100 | 50 to 100 | 80 to 100 | A (80-100) |
| N#CCCNC(=O)c1cc(NC(=O)[C@H]2[C@H](c3cc(Cl)cc(Cl)c3)C2(Cl)Cl)ccc1Cl (relative stereo) [F37, trans-2-Chloro-N-(2-cyanoethyl)-5-(2,2-dichloro-3-(3,5-dichlorophenyl)cyclopropane-1-carboxamido)benzamide] | 50 to 100 | 50 to 100 | 0 to 80 | A (80-100) |
| N#CCCCNC(=O)c1cc(NC(=O)[C@H]2[C@H](c3cc(Cl)cc(Cl)c3)C2(Cl)Cl)ccc1Cl (relative stereo) [F38, trans-2-Chloro-N-(3-cyanopropyl)-5-(2,2-dichloro-3-(3,5-dichlorophenyl)cyclopropane-1-carboxamido)benzamide] | 50 to 100 | 50 to 100 | 80 to 100 | A (80-100) |
| O=C(NCCCOCC(F)(F)F)c1cc(NC(=O)[C@H]2[C@H](c3cc(Cl)cc(Cl)c3)C2(Cl)Cl)ccc1Cl (relative stereo) [F39, trans-2-Chloro-5-(2,2-dichloro-3-(3,5-dichlorophenyl)cyclopropane-1-carboxamido)-N-(3-(2,2,2-trifluoroethoxy)propyl)benzamide] | 50 to 100 | 50 to 100 | 80 to 100 | A (80-100) |
| O=C(NCCC(F)(F)F)c1cc(NC(=O)[C@H]2[C@H](c3cc(Cl)cc(Cl)c3)C2(Cl)Cl)ccc1Cl (relative stereo) [F40, trans-2-Chloro-5-(2,2-dichloro-3-(3,5-dichlorophenyl)cyclopropane-1-carboxamido)-N-(3,3,3-trifluoropropyl)benzamide] | 50 to 100 | 50 to 100 | 80 to 100 | A (80-100) |
| O=C(NCc1ccc(C(F)(F)F)cc1)c1cc(NC(=O)[C@H]2[C@H](c3cc(Cl)cc(Cl)c3)C2(Cl)Cl)ccc1Cl (relative stereo) [F41, trans-2-Chloro-5-(2,2-dichloro-3-(3,5-dichlorophenyl)cyclopropane-1-carboxamido)-N-(4-(trifluoromethyl)benzyl)benzamide] | 50 to 100 | 50 to 100 | 0 | A (80-100) |
| CC(C)(CS(C)(=O)=O)NC(=O)c1cc(NC(=O)[C@H]2[C@H](c3cc(Cl)cc(Cl)c3)C2(Cl)Cl)ccc1Cl (relative stereo) [F42, trans-2-Chloro-5-(2,2-dichloro-3-(3,5-dichlorophenyl)cyclopropane-1-carboxamido)-N-(2-methyl-1-(methylsulfonyl)propan-2-yl)benzamide] | 50 to 100 | 50 to 100 | 0 to 80 | A (80-100) |
| O=C(NCCCF)c1cc(NC(=O)[C@H]2[C@H](c3cc(Cl)cc(Cl)c3)C2(Cl)Cl)ccc1Cl (relative stereo) [F44, trans-2-Chloro-5-(2,2-dichloro-3-(3,5-dichlorophenyl)cyclopropane-1-carboxamido)-N-(3-fluoropropyl)benzamide] | 50 to 100 | 50 to 100 | 80 to 100 | A (80-100) |
| CCCCNC(=O)c1cc(NC(=O)[C@H]2[C@H](c3cc(Cl)cc(Cl)c3)C2(Cl)Cl)ccc1Cl (relative stereo) [F45, trans-N-Butyl-2-chloro-5-(2,2-dichloro-3-(3,5-dichlorophenyl)cyclopropane-1-carboxamido)benzamide] | 50 to 100 | 50 to 100 | 80 to 100 | A (80-100) |
| CCNC(=O)c1cc(NC(=O)[C@H]2[C@H](c3cc(Cl)cc(Cl)c3)C2(Cl)Cl)ccc1Cl (relative stereo) [F46, trans-2-Chloro-5-(2,2-dichloro-3-(3,5-dichlorophenyl)cyclopropane-1-carboxamido)-N-ethylbenzamide] | 50 to 100 | 50 to 100 | 80 to 100 | A (80-100) |
| C#CCNC(=O)c1cc(NC(=O)[C@H]2[C@H](c3cc(Cl)cc(Cl)c3)C2(Cl)Cl)ccc1Cl (relative stereo) [F47, trans-2-Chloro-5-(2,2-dichloro-3-(3,5-dichlorophenyl)cyclopropane-1-carboxamido)-N-(prop-2-yn-1-yl)benzamide] | 50 to 100 | 50 to 100 | 80 to 100 | A (80-100) |
| O=C(NCC(F)F)c1cc(NC(=O)[C@H]2[C@H](c3cc(Cl)cc(Cl)c3)C2(Cl)Cl)ccc1Cl (relative stereo) [F48, trans-2-Chloro-5-(2,2-dichloro-3-(3,5-dichlorophenyl)cyclopropane-1-carboxamido)-N-(2,2-difluoroethyl)benzamide] | 50 to 100 | 50 to 100 | 80 to 100 | B (More than 0-Less than 80) |
| O=C(NCC(F)(F)C(F)(F)F)c1cc(NC(=O)[C@H]2[C@H](c3cc(Cl)cc(Cl)c3)C2(Cl)Cl)ccc1Cl (relative stereo) [F49, trans-2-Chloro-5-(2,2-dichloro-3-(3,5-dichlorophenyl)cyclopropane-1-carboxamido)-N-(2,2,3,3,3-pentafluoropropyl)benzamide] | 50 to 100 | 50 to 100 | 80 to 100 | A (80-100) |
| CC(=O)NCCNC(=O)c1cc(NC(=O)[C@H]2[C@H](c3cc(Cl)cc(Cl)c3)C2(Cl)Cl)ccc1Cl (relative stereo) [F55, trans-N-(2-Acetamidoethyl)-2-chloro-5-(2,2-dichloro-3-(3,5-dichlorophenyl)cyclopropane-1-carboxamido)benzamide] | 50 to 100 | 50 to 100 | 80 to 100 | B (More than 0-Less than 80) |
| CCCNC(=O)c1cc(NC(=O)[C@H]2[C@H](c3cc(Cl)cc(Cl)c3)C2(Cl)Cl)ccc1Cl (relative stereo) [F56, trans-2-Chloro-5-(2,2-dichloro-3-(3,5-dichlorophenyl)cyclopropane-1-carboxamido)-N-propylbenzamide] | 50 to 100 | 50 to 100 | 80 to 100 | A (80-100) |
